Results on five compounds are retold here after patent publication US5538834A, “Blocked photographically useful compounds for use with peroxide-containing processes” (Eastman Kodak Company, priority 1994, dated 1996).

Common to all, as to assay type: physicochemical
Data set [1] in a line: Ester cleavage rate in solution without and with hydrogen peroxide (Example 1). The following applies: pH 10 solution, 25° C., 5% CH3CN aqueous solution.
Procedure: ^a 5% CH3 CN aqueous solution
nonionic surfactant micellar solution
^c pH 10 solution, 25° C.
A short description of data set [2]: Thermal stability: retained blocked developing agent by HPLC after incubation (Examples 3-5). The settings on record: 1 week at 100° F. and 50% relative humidity, 10080 min. The protocol:
Blocked p-phenylenediamine developing agents 1, 3 and 6 were incorporated in photographic elements and evaluated for image dye formation activity and stability under storage conditions. The photographic elements were prepared as follows. The developing agents were dissolved in a high vapor pressure organic solvent (ethyl acetate for compounds 1 and 6, cyclohexanone for compound 3). The solutions were subsequently emulsified in aqueous gelatin using Alkanol-XC (Du Pont) as a dispersing aid. The dispersions were formulated such that the developing agents were initially present at 3% by weight, gelatin at 4% by weight and Alkanol-XC at 0.4% by weight. The initial slurries were emulsified by passing the mixtures through a colloid mill using known procedures. The organic solvents were then removed by evaporation.
Sets of strips were incubated for 1 week at 100° F. and 50% relativ humidity, and then evaluated by high performance liquid chromatography for amount of retained blocked developing agent. Sensitometry was obtained for step-tablet white-light exposures by contacting the strips with an activator solution at 77° F. The activator solution had the following composition:
The imaging activity and thermal stability of the exemplary blocked developing agents are given in Table V. The thermal stability denotes the percent retention, that is, the relative amount of blocked developing agent remaining after incubation, relative to the amount of developing agent initially coated.

A short description of data set [3]: Deblocking / dye release from ballasted blocked filter dye coating in alkaline buffer flow cell (Example 2). The settings on record: for % reaction after 400 sec.: 6.66667 min. The protocol:
DOC Gelatin (2700 mg/m^2)
FILTER DYE LAYER Gelatin (3780 mg/m^2)
bis(vinylsulfonylmethyl)ether
FILMBASE polyacetate-butyrate
Coating strips were suspended in a flow cell while alkaline buffer solutions at 40° C. were passed through it. As deblocking proceeded, the yellow color of the strips was reduced as the water-solublefilter dye was released and washed out of the film.

A short description of data set [4]: Accelerated keeping test of coatings, raw stock stability (Example 2). The following applies: 2 weeks at 50° C. and 50% relative humidity; 20160 min. The source says:
Coatings containing compound 32 as described above were also subjected to accelerated keeping tests to determine raw stock stability.

As for `CC(C)(C)C(=O)Oc1ccc([N+](=O)[O-])cc1` [p-nitrophenyl pivalate], in data set [1] (0.1M H2O2), the “t1/2, 0.1M H2O2” value was determined as 0.0113 min. In data set [1] (no H2O2), the “t1/2, no H2O2” value worked out at 95 min.
On to `CCC(=O)Oc1ccc(COC(=O)Nc2ccc(N(CC)CCNS(C)(=O)=O)cc2C)cc1NC(=O)c1ccc(NS(C)(=O)=O)cc1` [compound 6], for which, in data set [2], the Retention worked out at 100%.
In the case of `CCCCCCCCCCCCCCCCS(=O)(=O)Nc1ccc(C(=O)Nc2cc(COC(=O)Nc3cc(N(C)C)ccc3N=Nc3cccc(C(=O)O)c3)ccc2OC(=O)CC)cc1` [compound 32], the t1/2 in data set [3] (pH 10, 0.2 N H2O2, 40° C.) is 3.67 min; in data set [3] (pH 10, no H2O2, 40° C.), “very long”; in data set [3] (pH 10.7, 0.2 N H2O2, 40° C.), 1.17 min; in data set [3] (pH 10.7, no H2O2, 40° C.) it was 13 min. Also, the “% reaction after 400 sec.” value in data set [3] (pH 10, 0.2 N H2O2, 40° C.) turned out to be 77%; in data set [3] (pH 10, no H2O2, 40° C.) it was 3%; in data set [3] (pH 10.7, 0.2 N H2O2, 40° C.) it was 100%; in data set [3] (pH 10.7, no H2O2, 40° C.), 31%. The recovery after storage entry in data set [4] was “greater than 93%”.
The compound `CCN(CCNS(C)(=O)=O)c1ccc(NC(=O)OCc2ccc(OC(=O)C(C)(C)C)c(NS(C)(=O)=O)c2)c(C)c1` [compound 1] returned a Retention in data set [2] of 100%.
For `CCN(CCNS(C)(=O)=O)c1ccc(NC(=O)OCc2ccc(OC(=O)C(C)C)c(NC(=O)CCCC(=O)O)c2)c(C)c1` [compound 3], in data set [2], the Retention is reported as 98%.
